Measured values published in patent US20250152750A1 (Cancer Research Technology Limited, priority 2022, published 2025).
Entries after “also recorded” stand apart in the source; their conditions may differ.

Assays:
[1] = test system: SK-MEL-103 xenografts; experiment: Ex vivo IVIS fluorescence imaging of untreated and Palbociclib treated xenografts; format: in vivo, mice; details: 200 μL of 1 mg/mL tail vein, 6 h, p=0.0438
Protocol: All mice were treated in strict accordance with the local ethical committee (University of Cambridge License Review Committee) and the UK Home Office guidelines. Tumour xenografts were established using SK-MEL-103. Cells were trypsinised, counted with a haemocytometer, and injected subcutaneously (10^6 cells in a volume of 100 μL per dorsolateral flank) in 8- to 10-week-old athymic nude female mice (Crl:NU(NCr)-Foxn1^nu) purchased from Charles River Laboratories. Tumour volume was measured every 2 days with a caliper and calculated as V=(a×b 2)/2 where a is the longer and b is the shorter of two perpendicular diameters. […]
An IVIS Spectrum Imaging System (Perkin Elmer Inc) was used for ex vivo fluorescence imaging. For ex vivo imaging, mice were sacrificed by cervical dislocation and organs and tumour xenografts were analysed immediately after harvesting. ICG was detected using an excitation wavelength of 710-740 nm and emission bandpass from 810-830 nm. […] Fluorescence imaging quantification was performed by Living Image 3.2 software (Perkin Elmer Inc). […] Fluorescence activity is measured in photons per second per square centimetre per steradian (p/s/cm^2/sr). […]
See Examples—part A. Fluorescence activity is measured as average Radiant Efficiency with the equation of [p/s/cm2/sr]/[μW/cm2].

[2] = test system: senescent cells (multiple models of senescence); experiment: Flow cytometry accumulation in control and senescent cells; format: cell-based, human; details: 12-16 hours exposure
Protocol: LSR Fortessa (BD-Becton Dickinson) was used for flow cytometry analysis. For cyanine dye nanoparticle and small molecule studies, 6 well plates were used and seeded 200,000 cells per well. […] After this, cells were trypsinised and re-suspended in PBS buffer with 2% FBS. At least 10,000 live events were collected for each condition. DAPI (Sigma) was added to exclude dead cells. The analysis of all flow cytometry data was performed using FlowJo v10 (Treestar, OR). Unstained control and senescent cells were used as reference for each independent experiment. For ICG the 640 nm laser was used with an emission window of 750-810 nm. For the cyanine dye nanoparticle, the 640 nm laser was used with an emission window of 708-753 nm.

[3] = test system: uptake of cyanine dye nanoparticles in control and senescent cells; experiment: Endocytosis analysis by confocal microscopy with endocytosis pathway inhibitors; format: cell-based; details: inhibitor 1 h before nanoparticles, 12-16 h
Protocol: Cells were trypsinized and seeded in flat-bottom μ-clear 96-well plates (Greiner Bio-One, #655087) at a density of 3,500-5,000 control and 4,000-6,000 senescent cells/well. Once the cells were attached, culture medium was changed to DMEM without FBS and exposed to a number of different inhibitors for 1 h. […] The cells were washed 3x with PBS for 5 min. Specific organelle stain LysoTracker Green DND-26 (Cell Signaling Technology, FM8783) was used according to the manufacturers protocol. For nuclei staining, Hoechst at 0.1 μg/mL in PBS was added 10 min prior to analysis.

Row | SMILES | effect of inhibitor on uptake of cyanine dye nanoparticles [3] | further results
1 | CC1(C)C(/C=C/C=C/C=C/C=C2\N(CCCCS(=O)(=O)O)c3ccc4ccccc4c3C2(C)C)=[N+](CCCCS(=O)(=O)[O-])c2ccc3ccccc3c21 [ICG, indocyanine green] | – | ICG emission in untreated (control) vs Palbociclib treated tumours [1]: accumulation in untreated tumours as opposed to senescent tumours; also recorded: significantly higher signal in the control tumours; accumulation in senescent cells compared to controls [2]: accumulation of ICG
2 | O=C1NC(=NS(=O)(=O)c2cccc3ccccc23)S/C1=C\c1ccc(Br)cc1 [Pitstop 2] | significant inhibition; also recorded: significant inhibitor of endocytosis | –
3 | CCN(CC)CCCC(C)Nc1ccnc2cc(Cl)ccc12 (centres unmarked) [chloroquine] | significantly enhances | effect of inhibitor on uptake of cyanine dye nanoparticles ([3]; listed as Chloroquine): more dramatic increase
4 | O=C(N/N=C/c1cc(O)c(O)cc1O)c1cc2ccccc2cc1O [dynago4a] | significantly inhibited | effect of inhibitor on uptake of cyanine dye nanoparticles ([3]; listed as dyngo4a): significant inhibition
5 | CN1CCN(CCCN2c3ccccc3Sc3ccc(Cl)cc32)CC1 [prochloroperazine] | not inhibited | –
